# Assay results: patent US8530648B2, “Diaza-spiro[5.5]undecanes” (Novartis AG, priority 2009, dated 2013)
# Columns and labels:
# [1] = molecular target: hOx1R (Homo sapiens (Human), UniProt O43613); test: Calcium accumulation in cells (FLIPR), hOx1R; assay type: cell-based; details: for Ki: inhibition of orexin A induced calcium accumulation, Cheng and Prusoff correction; for inhibition at 10 µM: measured at a concentration of 10 μM of compound
# Outline: (§1)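 Cells expressing human orexin 1 or 2 receptor, serum-deprived overnight, loaded with Fluo-4-AM (2 μM) plus 0.1 mM probenecid, pH 7.4 HEPES buffer with 1% BSA.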
# [2] = molecular target: hOx2R (Homo sapiens (Human), UniProt O43614); test: Calcium accumulation in cells (FLIPR), hOx2R; assay type: cell-based; details: for Ki: inhibition of orexin A induced calcium accumulation, Cheng and Prusoff correction; for inhibition at 10 µM: measured at a concentration of 10 μM of compound
# Outline: as §1
# Chain of hOx2R (O43614 whole entry): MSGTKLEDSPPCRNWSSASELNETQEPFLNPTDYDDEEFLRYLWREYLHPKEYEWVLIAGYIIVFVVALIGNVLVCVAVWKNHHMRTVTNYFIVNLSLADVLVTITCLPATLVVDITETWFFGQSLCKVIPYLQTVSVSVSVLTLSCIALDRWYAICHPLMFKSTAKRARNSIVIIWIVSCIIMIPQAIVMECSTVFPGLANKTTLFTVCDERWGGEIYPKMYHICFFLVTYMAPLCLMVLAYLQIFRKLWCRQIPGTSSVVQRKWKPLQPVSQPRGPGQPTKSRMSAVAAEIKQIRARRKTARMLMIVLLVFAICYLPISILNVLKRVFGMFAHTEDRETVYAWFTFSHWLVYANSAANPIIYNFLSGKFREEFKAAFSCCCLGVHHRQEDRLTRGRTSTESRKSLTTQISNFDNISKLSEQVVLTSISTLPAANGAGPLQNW
# Chain of hOx1R (O43613 whole entry): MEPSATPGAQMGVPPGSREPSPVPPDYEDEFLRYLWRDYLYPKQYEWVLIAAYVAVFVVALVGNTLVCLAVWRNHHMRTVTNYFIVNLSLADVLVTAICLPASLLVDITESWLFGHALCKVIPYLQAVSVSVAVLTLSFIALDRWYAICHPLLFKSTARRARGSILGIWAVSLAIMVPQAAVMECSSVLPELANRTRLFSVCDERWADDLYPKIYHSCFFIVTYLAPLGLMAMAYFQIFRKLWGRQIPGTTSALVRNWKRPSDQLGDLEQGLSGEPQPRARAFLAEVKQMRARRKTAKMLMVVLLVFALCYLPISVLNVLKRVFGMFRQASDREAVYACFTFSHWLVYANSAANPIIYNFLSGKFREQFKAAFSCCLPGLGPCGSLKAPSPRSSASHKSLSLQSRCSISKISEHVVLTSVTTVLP
Structure (SMILES),Ki [1] [nM],Ki [2] [nM],inhibition at 10 µM [1] [%],inhibition at 10 µM [2] [%]
"Cc1oc(-c2cscn2)nc1CN1CCCC2(CCN(c3cnc4ccccc4n3)CC2)C1=O [Example 114, 2-((5-methyl-2-(thiazol-4-yl)oxazol-4-yl)methyl)-9-(quinoxalin-2-yl)-2,9-diazaspiro[5.5]undecan-1-one]",3790,831,–,–
"Cc1cc(C)n(-c2ccccc2CN2CCCC3(CCN(c4cnc5ccccc5n4)CC3)C2=O)n1 [Example 115, 2-(2-(3,5-dimethyl-1H-pyrazol-1-yl)benzyl)-9-(quinoxalin-2-yl)-2,9-diazaspiro[5.5]undecan-1-one]",–,1200,57,–
"Cc1oc(-c2ccoc2)nc1CN1CCCC2(CCN(c3cnc4ccccc4n3)CC2)C1=O [Example 116, 2-((2-(furan-3-yl)-5-methyloxazol-4-yl)methyl)-9-(quinoxalin-2-yl)-2,9-diazaspiro[5.5]undecan-1-one]",3790,–,–,53
"Cc1ncc(CN2CCCC3(CCN(c4cnc5ccccc5n4)CC3)C2=O)c2c1OC(C)(C)OC2 [Example 117, 9-(quinoxalin-2-yl)-2-((2,2,8-trimethyl-4H-[1,3]dioxino[4,5-c]pyridin-5-yl)methyl)-2,9-diazaspiro[5.5]undecan-1-one]",2380,249,–,–
"O=C1N(Cc2cncn2Cc2ccccc2)CCCC12CCN(c1cnc3ccccc3n1)CC2 [Example 118, 2-((1-benzyl-1H-imidazol-5-yl)methyl)-9-(quinoxalin-2-yl)-2,9-diazaspiro[5.5]undecan-1-one]",1840,197,–,–
"Cc1nc(-c2ccccc2)oc1CN1CCCC2(CCN(c3cnc4ccccc4n3)CC2)C1=O [Example 119, 2-((4-methyl-2-phenyloxazol-5-yl)methyl)-9-(quinoxalin-2-yl)-2,9-diazaspiro[5.5]undecan-1-one]",1900,291,–,–
"O=C1N(Cc2cc(F)cc3c2OCOC3)CCCC12CCN(c1cnc3ccccc3n1)CC2 [Example 120, 2-((6-fluoro-4H-benzo[d][1,3]dioxin-8-yl)methyl)-9-(quinoxalin-2-yl)-2,9-diazaspiro[5.5]undecan-1-one]",700,125,–,–
"O=C1N(Cc2cc3ccccc3[nH]2)CCCC12CCN(c1cnc3ccccc3n1)CC2 [Example 121, 2-((1H-indol-2-yl)methyl)-9-(quinoxalin-2-yl)-2,9-diazaspiro[5.5]undecan-1-one]",2530,1660,–,–
"O=C1N(Cc2nnnn2-c2ccccc2)CCCC12CCN(c1cnc3ccccc3n1)CC2 [Example 122, 2-((1-phenyl-1H-tetrazol-5-yl)methyl)-9-(quinoxalin-2-yl)-2,9-diazaspiro[5.5]undecan-1-one]",–,725,31,–
"O=C1N(Cc2ccc3[nH]ccc3c2)CCCC12CCN(c1cnc3ccccc3n1)CC2 [Example 123, 2-((1H-indol-5-yl)methyl)-9-(quinoxalin-2-yl)-2,9-diazaspiro[5.5]undecan-1-one]",–,–,11,24

# Second part, the compound after the results:
Ki [1] [nM],Ki [2] [nM],inhibition at 10 µM [1] [%],inhibition at 10 µM [2] [%],Structure (SMILES)
932,140,–,–,"N#Cc1ccccc1CN1CCCC2(CCN(c3cnc4ccccc4n3)CC2)C1=O [Example 124, 2-((1-oxo-9-(quinoxalin-2-yl)-2,9-diazaspiro[5.5]undecan-2-yl)methyl)benzonitrile]"
1250,267,–,–,"O=C1N(Cc2cccc3c2CCN3)CCCC12CCN(c1cnc3ccccc3n1)CC2 [Example 126, 2-(indolin-4-ylmethyl)-9-(quinoxalin-2-yl)-2,9-diazaspiro[5.5]undecan-1-one]"
2340,299,–,–,"O=C1N(Cc2cc(-n3cccn3)ccn2)CCCC12CCN(c1cnc3ccccc3n1)CC2 [Example 127, 2-((4-(1H-pyrazol-1-yl)pyridin-2-yl)methyl)-9-(quinoxalin-2-yl)-2,9-diazaspiro[5.5]undecan-1-one]"
–,524,48,–,"O=C1N(Cc2c[nH]c3ccccc23)CCCC12CCN(c1nc3cc(Cl)ccc3o1)CC2 [Example 131, 2-((1H-indol-3-yl)methyl)-9-(5-chlorobenzo[d]oxazol-2-yl)-2,9-diazaspiro[5.5]undecan-1-one]"
3180,555,–,–,"O=C1N(Cc2cccc3c2OCCN3)CCCC12CCN(c1cnc3ccccc3n1)CC2 [Example 132, 2-((3,4-dihydro-2H-benzo[b][1,4]oxazin-8-yl)methyl)-9-(quinoxalin-2-yl)-2,9-diazaspiro[5.5]undecan-1-one]"
1150,244,–,–,"Cc1[nH]c2ccccc2c1CN1CCCC2(CCN(c3cnc4ccccc4n3)CC2)C1=O [Example 133, 2-((2-methyl-1H-indol-3-yl)methyl)-9-(quinoxalin-2-yl)-2,9-diazaspiro[5.5]undecan-1-one]"
1440,161,–,–,"O=C1CCCC2(CCN(c3cnc4ccccc4n3)CC2)N1Cc1ccccc1 [Example 134, 1-benzyl-9-(quinoxalin-2-yl)-1,9-diazaspiro[5.5]undecan-2-one]"
242,185,–,–,"O=C1CCCC2(CCN(c3cnc4ccccc4n3)CC2)N1Cc1noc2ccccc12 [Example 135, 1-(benzo[d]isoxazol-3-ylmethyl)-9-(quinoxalin-2-yl)-1,9-diazaspiro[5.5]undecan-2-one]"
509,656,–,–,"O=C1CCCC2(CCN(c3nnc(-c4ccccc4)o3)CC2)N1Cc1cccc2[nH]ccc12 [Example 137, 1-((1H-indol-4-yl)methyl)-9-(5-phenyl-1,3,4-oxadiazol-2-yl)-1,9-diazaspiro[5.5]undecan-2-one]"
3790,1970,–,–,"O=C1CCCC2(CCN(c3nc4ccccc4[nH]3)CC2)N1Cc1cccc2[nH]ccc12 [Example 138, 1-((1H-indol-4-yl)methyl)-9-(1H-benzo[d]imidazol-2-yl)-1,9-diazaspiro[5.5]undecan-2-one]"
541,105,–,–,"O=C1CCCC2(CCN(c3nc4ccc(Cl)cc4o3)CC2)N1Cc1cccc2[nH]ccc12 [Example 139, 1-((1H-indol-4-yl)methyl)-9-(6-chlorobenzo[d]oxazol-2-yl)-1,9-diazaspiro[5.5]undecan-2-one]"
1980,404,–,–,"O=C1CCCC2(CCN(c3cnc4ccccc4n3)CC2)N1Cc1c[nH]c2ncccc12 [Example 141, 1-((1H-pyrrolo[2,3-b]pyridin-3-yl)methyl)-9-(quinoxalin-2-yl)-1,9-diazaspiro[5.5]undecan-2-one]"
925,212,–,–,"Cn1nc(CN2CCCC3(CCN(c4cnc5ccccc5n4)CC3)C2=O)c2ccccc21 [Example 142, 2-((1-methyl-1H-indazol-3-yl)methyl)-9-(quinoxalin-2-yl)-2,9-diazaspiro[5.5]undecan-1-one]"
3250,596,–,–,"CN1CCOc2c(CN3CCCC4(CCN(c5cnc6ccccc6n5)CC4)C3=O)cccc21 [Example 144, 2-((4-methyl-3,4-dihydro-2H-benzo[b][1,4]oxazin-8-yl)methyl)-9-(quinoxalin-2-yl)-2,9-diazaspiro[5.5]undecan-1-one]"
–,621,29,–,"O=C1N(Cc2c[nH]c3ccccc23)CCCC12CCN(c1cnc3nccnc3c1)CC2 [Example 146, 2-((1H-indol-3-yl)methyl)-9-(pyrido[3,2-b]pyrazin-7-yl)-2,9-diazaspiro[5.5]undecan-1-one]"
